Test results as given in patent publication EP0292365A2, “4-Amino-5,8-quinazolindione derivatives, process for their preparation and pharmaceutical compositions containing them” (CENTRE NATIONAL DE LA RECHERCHE SCIENTIFIQUE, priority 1987, dated 1988).

System: cellules de lignée MCF-7
Experiment: Effect on in vitro cell growth, MCF-7 line (Feulgen staining, automated scanning microscopy)
Format: cell-based, humaine
Conditions: for nombre de cellules observées par champ de microscope: MCF-7
Experimental: Les cellules tumorales en croissance exponentielle sont ensemencées (10.000 cellules/ml) dans des boîtes à Petri contenant au fond de la boîte un couvre-objet (18 x 18 mm) et 3 ml de MEM (MEM = milieu essentiel minimum) + 5 % FCS (FCS = serum de veau fetal) (v/v). Après 24 heures d'incubation, quand les cellules sont bien attachées au fond de la boîte, le milieu est remplacé par MEM expérimental contenant 5 % FCS (v/v) et enrichi, par exemple de : • a) 3 ml du milieu (MEM + 5 % FCS) = témoins • b) 3 ml du milieu contenant une dose élevée du composé à tester : 10 µg/ml : (M) • c) milieu contenant une faible dose du composé à tester : 0.01 µg/ml (f) respectivement aux jours 1, 2, 3 et 4 après addition du milieu expérimental dans les boîtes de Petri. Trois couvre-objets sont fixés pour chaque condition expérimentale : éthanol 95° (75 v), formol neutre à 40 % (20 v), acide acétique (5 v), pendant 10 minutes. Les cellules témoins cultivées dans le milieu expérimental sans le produit à tester sont fixées au même moment. A la fin de la fixation, les couvre-objets sont retournés et montés sur des lames histologiques à l'aide de produit commercialisé sous la marque DPX par la Société British Drug House et conservés à l'abri de la lumière et à 4° en attendant d'être colorés.
Les lames avec les couvre-objets sont colorées par une réaction de Feulgen modifiée. Toutes les lames d'une condition expérimentale sont conditionnées par le réactif de Feulgen en même temps, pendant une heure, après hydrolyse dans un milieu HCI 6N pendant une heure à 20° C. Les préparations cellulaires sont ensuite conservées à l'abri de la lumière et à 4°C en attendant l'analyse.
Grâce à un système d'analyse microscopique à balayage automatique, on détermine l'effet de la drogue sur la croissance cellulaire, au cours du temps, sur deux lignées cellulaires tumorales d'origine humaine : la lignée MCF-7 d'origine mammaire et la lignée HBL (mélanome malin).
On a représenté dans le tableau C les résultats relatifs à l'action du composé 63 sur la croissance des cellules de lignée MCF-7 et dans le tableau C BIS, les résultats relatifs à l'action du composé 63 sur la croissance des cellules de lignée HBL. Ces résultats montrent le nombre de cellules survivant au traitement après 1, 2, 3 et 4 jours d'incubation et à trois doses différentes (10 µg/ml, 1 µg/ml et 0,1 µg/ml).
Chaque chiffre correspond au nombre de cellules observées par champ de microscope.

For CN(C)CCCNc1ncnc2c1C(=O)C(N1CC1)=C(N1CC1)C2=O [composé 63], the “nombre de cellules observées par champ de microscope” value (0.1µg/ml (f), 1j) was 174± 38 ns, the “nombre de cellules observées par champ de microscope” value (0.1µg/ml (f), 2j) was 92± 21 and the “nombre de cellules observées par champ de microscope” value (0.1µg/ml (f), 3j) was 38± 6. For the same molecule, the “nombre de cellules observées par champ de microscope” value (0.1µg/ml (f), 4j) was 30± 4, the “nombre de cellules observées par champ de microscope” value (1µg/ml (M), 1j) was 133± 7 ns and the “nombre de cellules observées par champ de microscope” value (1µg/ml (M), 2j) was 85± 8. The “nombre de cellules observées par champ de microscope” value (1µg/ml (M), 3j) was 58± 7, the “nombre de cellules observées par champ de microscope” value (1µg/ml (M), 4j) was 63± 8 and the “nombre de cellules observées par champ de microscope” value (10µg/ml (F), 1j) was 128± 11 ns. For the same molecule, the “nombre de cellules observées par champ de microscope” value (10µg/ml (F), 2j) was 93± 4, the “nombre de cellules observées par champ de microscope” value (10µg/ml (F), 3j) was 87± 20 and the “nombre de cellules observées par champ de microscope” value (10µg/ml (F), 4j) was 88± 18. For the same molecule, the “croissance des cellules MCF-7” value (dose-indépendante, summary of tableau C) was “ralentit fortement la croissance”.
